One experiment has as its target T1, human PHD2 (PHD2181-417) (Homo sapiens, UniProt Q9GZT9).
T1 construct: Smt (SUMO) tag (cleaved yes); made in house; host or cells: E. coli BL21 (pBAD vector)
As to the kind of experiment: PHD enzymatic assay ([14C]-succinic acid production). In kind it is biochemical. The note with it: PHD2181-417, HIF-1α peptide 10 μM, average of results; read-out: Enzyme pIC50 (converted). Put shortly:
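Activity measured as [14C]-succinic acid formed from [5-14C]-2-oxoglutarate over 10 minutes, with peptide substrate at 10 μM, in Tris-HCl pH 7.5 buffer containing catalase, DTT and ascorbate. Unreacted oxoglutarate removed by DNP derivatisation; supernatant beta-counted.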

In another experiment the test system is Hep-3B cells. As to the kind of experiment: Cellular assay: erythropoietin secretion in Hep-3B cells. In kind it is cell-based, human. The note with it: Homo sapiens, Hep3B, 100 μM compound, 24 hours, percent of EPO secretion relative to assay control compound 7-[(4-Chloro-phenyl)-(5-methyl-isoxazol-3-ylamino)-methyl]-quinolin-8-ol, read-out: Cellular % EPO Stimulation. The method, boiled down: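 Hep-3B cells in DMEM with 10% FBS, treated 24 h after plating with compounds at 100 μM final for a further 24 h. Secreted EPO in supernatant measured by MSD electrochemiluminescence sandwich immunoassay with anti-EPO detection antibody.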

T1 sequence (Q9GZT9 181-417): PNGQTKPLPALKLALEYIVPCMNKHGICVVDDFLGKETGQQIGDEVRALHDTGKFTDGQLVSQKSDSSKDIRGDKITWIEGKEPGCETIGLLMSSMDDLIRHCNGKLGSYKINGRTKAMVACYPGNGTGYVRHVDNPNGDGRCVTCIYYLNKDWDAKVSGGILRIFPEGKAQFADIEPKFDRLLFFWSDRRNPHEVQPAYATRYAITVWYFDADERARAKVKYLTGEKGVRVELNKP

On to `O=C(O)c1cnn(-c2nc3ccc(-c4cccc5c4OCCO5)cc3c(=O)[nH]2)c1` [Example 204, 1-[6-(2,3-Dihydro-benzo[1,4]dioxin-5-yl)-4-oxo-3,4-dihydro-quinazolin-2-yl]-1H-pyrazole-4-carboxylic acid], for which the IC50 at human PHD2 (PHD2181-417) was 15.8 nM. Also, the Emax at 100 µM in the experiment on Hep-3B cells was determined as 111%.

As for `O=C(O)c1cnn(-c2nc3c(F)cc(Br)cc3c(=O)[nH]2)c1` [Example 130, 1-(6-Bromo-8-fluoro-4-oxo-3,4-dihydro-quinazolin-2-yl)-1H-pyrazole-4-carboxylic acid], the IC50 at human PHD2 (PHD2181-417) was 79.4 nM. The Emax at 100 µM with Hep-3B cells is 12%.

For the molecule `CCCc1ccc2nc(-n3cc(C(=O)O)cn3)[nH]c(=O)c2c1` [Example 129, 1-(4-Oxo-6-propyl-3,4-dihydro-quinazolin-2-yl)-1H-pyrazole-4-carboxylic acid], the IC50 on human PHD2 (PHD2181-417) is 31.6 nM. The Emax at 100 µM in the experiment with Hep-3B cells was found to be 94%.

Consider `Cc1cccc(C)c1Oc1ccc2nc(-n3cc(C(=O)O)cn3)[nH]c(=O)c2c1` [Example 42, 1-[6-(2,6-Dimethyl-phenoxy)-4-oxo-3,4-dihydro-quinazolin-2-yl]-1H-pyrazole-4-carboxylic acid], for which, at human PHD2 (PHD2181-417), the IC50 was 25.1 nM. Besides, in the experiment on Hep-3B cells, the Emax at 100 µM came to 117%.

As for `O=C(O)c1cnn(-c2nc3ccc(I)cc3c(=O)[nH]2)c1` [Example 12, 1-(6-Iodo-4-oxo-3,4-dihydro-quinazolin-2-yl)-1H-pyrazole-4-carboxylic acid], the IC50 on human PHD2 (PHD2181-417) was 25.1 nM. For the same molecule, in the experiment on Hep-3B cells, the Emax at 100 µM is 50%.

On to `O=C(O)c1cnn(-c2nc3ccc(-c4ccccc4OC(F)(F)F)cc3c(=O)[nH]2)c1` [Example 202, 1-[4-Oxo-6-(2-trifluoromethoxy-phenyl)-3,4-dihydro-quinazolin-2-yl]-1H-pyrazole-4-carboxylic acid], for which the IC50 on human PHD2 (PHD2181-417) is 15.8 nM. The Emax at 100 µM in the experiment on Hep-3B cells was 29%.

For the molecule `O=C(O)c1cnn(-c2nc3ccc(-c4cccc(F)c4)cc3c(=O)[nH]2)c1` [Example 196, 1-[6-(3-Fluoro-phenyl)-4-oxo-3,4-dihydro-quinazolin-2-yl]-1H-pyrazole-4-carboxylic acid], the IC50 on human PHD2 (PHD2181-417) was 39.8 nM. In addition, the Emax at 100 µM in the experiment with Hep-3B cells turned out to be 92%.

On to `O=C(O)c1cnn(-c2nc3cc(F)cc(F)c3c(=O)[nH]2)c1` [Example 131, 1-(5,7-Difluoro-4-oxo-3,4-dihydro-quinazolin-2-yl)-1H-pyrazole-4-carboxylic acid], for which, at human PHD2 (PHD2181-417), the IC50 was 63.1 nM. Besides, the Emax at 100 µM with Hep-3B cells was found to be 21%.

`O=C(O)c1cnn(-c2nc3cc(Cl)c(SC(F)(F)F)cc3c(=O)[nH]2)c1` [Example 159, 1-(7-Chloro-4-oxo-6-trifluoromethylsulfanyl-3,4-dihydro-quinazolin-2-yl)-1H-pyrazole-4-carboxylic acid]: the IC50 at human PHD2 (PHD2181-417) is 25.1 nM. In addition, in the experiment with Hep-3B cells, the Emax at 100 µM was 16%.

Consider `O=C(O)c1cnn(-c2nc3ccc(Br)cc3c(=O)[nH]2)c1` [Example 13, 1-(6-Bromo-4-oxo-3,4-dihydro-quinazolin-2-yl)-1H-pyrazole-4-carboxylic acid], for which the IC50 on human PHD2 (PHD2181-417) is 63.1 nM. For the same molecule, the Emax at 100 µM in the experiment with Hep-3B cells was determined as 35%.

Regarding `Cc1cc2nc(-n3cc(C(=O)O)cn3)[nH]c(=O)c2cc1Oc1cccc(C(F)(F)F)c1` [Example 93, 1-[7-methyl-4-oxo-6-(3-trifluoromethyl-phenoxy)-3,4-dihydro-quinazolin-2-yl]-1H-pyrazole-4-carboxylic acid], at human PHD2 (PHD2181-417), the IC50 was 20 nM. Also, the Emax at 100 µM with Hep-3B cells was 153%.

As to `Cc1cc(C)cc(Oc2cc3c(=O)[nH]c(-n4cc(C(=O)O)cn4)nc3cc2C)c1` [Example 89, 1-[6-(3,5-dimethyl-phenoxy)-7-methyl-4-oxo-3,4-dihydro-quinazolin-2-yl]-1H-pyrazole-4-carboxylic acid], on human PHD2 (PHD2181-417), the IC50 was 25.1 nM. In addition, in the experiment with Hep-3B cells, the Emax at 100 µM is 137%.

On to `CC(C)(C)c1ccc(S(=O)(=O)c2cc3c(=O)[nH]c(-n4cc(C(=O)O)cn4)nc3cc2Cl)cc1` [Example 72, 1-[6-(4-tert-Butyl-benzenesulfonyl)-7-chloro-4-oxo-3,4-dihydro-quinazolin-2-yl]-1H-pyrazole-4-carboxylic acid], for which, on human PHD2 (PHD2181-417), the IC50 is 50.1 nM. The Emax at 100 µM with Hep-3B cells was determined as 22%.

For `O=C(O)c1cnn(-c2nc3ccc(Oc4cc(Cl)ccc4Cl)cc3c(=O)[nH]2)c1` [Example 40, 1-[6-(2,5-Dichloro-phenoxy)-4-oxo-3,4-dihydro-quinazolin-2-yl]-1H-pyrazole-4-carboxylic acid], on human PHD2 (PHD2181-417), the IC50 was 25.1 nM. Moreover, the Emax at 100 µM with Hep-3B cells stood at 77%.

For the molecule `O=C(O)c1cnn(-c2nc3cc(F)c(Oc4cc(Cl)ccc4Cl)cc3c(=O)[nH]2)c1` [Example 87, 1-[6-(2,5-dichloro-phenoxy)-7-fluoro-4-oxo-3,4-dihydro-quinazolin-2-yl]-1H-pyrazole-4-carboxylic acid], the IC50 on human PHD2 (PHD2181-417) was 20 nM. Further, in the experiment on Hep-3B cells, the Emax at 100 µM was found to be 84%.

On to `O=C(O)c1cnn(-c2nc3ccc(F)cc3c(=O)[nH]2)c1` [Example 4, 1-(6-Fluoro-4-oxo-3,4-dihydro-quinazolin-2-yl)-1H-pyrazole-4-carboxylic acid], for which the IC50 on human PHD2 (PHD2181-417) is 39.8 nM. Further, the Emax at 100 µM in the experiment on Hep-3B cells is 15%.

On to `CC(C)(C)c1cc(Oc2ccc3nc(-n4cc(C(=O)O)cn4)[nH]c(=O)c3c2)cc(C(C)(C)C)c1` [Example 35, 1-[6-(3,5-Di-tert-butyl-phenoxy)-4-oxo-3,4-dihydro-quinazolin-2-yl]-1H-pyrazole-4-carboxylic acid], for which the IC50 on human PHD2 (PHD2181-417) is 31.6 nM. In addition, the Emax at 100 µM with Hep-3B cells came to 8%.

Regarding `O=C(O)c1cnn(-c2nc3ccc(NCc4ccccc4)cc3c(=O)[nH]2)c1` [Example 171, 1-(6-Benzylamino-4-oxo-3,4-dihydro-quinazolin-2-yl)-1H-pyrazole-4-carboxylic acid], the IC50 at human PHD2 (PHD2181-417) was 25.1 nM. The Emax at 100 µM in the experiment on Hep-3B cells was found to be 34%.

Consider `C#Cc1ccc2nc(-n3cc(C(=O)O)cn3)[nH]c(=O)c2c1` [Example 76, 1-(6-Ethynyl-4-oxo-3,4-dihydro-quinazolin-2-yl)-1H-pyrazole-4-carboxylic acid], for which, on human PHD2 (PHD2181-417), the IC50 was 31.6 nM. For the same molecule, the Emax at 100 µM with Hep-3B cells is 16%.

Consider `O=C(O)c1cnn(-c2nc3ccc(-c4ccc(Cl)cc4)cc3c(=O)[nH]2)c1` [Example 194, 1-[6-(4-Chloro-phenyl)-4-oxo-3,4-dihydro-quinazolin-2-yl]-1H-pyrazole-4-carboxylic acid], for which the IC50 at human PHD2 (PHD2181-417) was 20 nM. Moreover, the Emax at 100 µM with Hep-3B cells is 62%.

Consider `O=C(O)c1cnn(-c2nc3cc(Cl)c(N4CCc5ccc(Br)cc5C4)cc3c(=O)[nH]2)c1` [Example 85, 1-[6-(7-Bromo-3,4-dihydro-1H-isoquinolin-2-yl)-7-chloro-4-oxo-3,4-dihydro-quinazolin-2-yl]-1H-pyrazole-4-carboxylic acid], for which the IC50 on human PHD2 (PHD2181-417) was 25.1 nM. Also, the Emax at 100 µM in the experiment with Hep-3B cells is 49%.

On to `O=C(O)c1cnn(-c2nc3ccc(Oc4cccc5c4CCCC5)cc3c(=O)[nH]2)c1` [Example 44, 1-[4-Oxo-6-(5,6,7,8-tetrahydro-naphthalen-1-yloxy)-3,4-dihydro-quinazolin-2-yl]-1H-pyrazole-4-carboxylic acid], for which, at human PHD2 (PHD2181-417), the IC50 is 25.1 nM. Moreover, the Emax at 100 µM in the experiment on Hep-3B cells was 52%.

(Values after US8937078B2, “Quinazolinones as prolyl hydroxylase inhibitors” (Janssen Pharmaceutica NV, priority 2009, dated 2015).)
